Reference: PMC5059851, “Inhibition of Hedgehog-dependent tumors and cancer stem cells by a newly identified naturally occurring chemotype” (Cell Death & Disease, 2016)
“Also recorded” adds a separate entry of the source.

Assays:
human Smo WT = target: T1, human Smo WT (Homo sapiens, UniProt Q99835); assay: Bodipy-Cyclopamine (BC) binding assay, HEK293T cells transfected with human Smo WT; conditions: BC (5 nM) displacement, transiently transfected 293T cells
T1 construct: Myc-DDK; expressed in transfected cells; host or cells: HEK293T
Protocol: (§1) Cells were washed in PBS supplemented with 0.5% fetal bovine serum, fixed in 4% paraformaldehyde in phosphate-buffered saline (PBS) for 10 min, and incubated for 2 h at 37 °C both in the same medium supplemented with Bodipy-Cyclopamine (5 nM) and the studied compounds. The cells were permeabilized with Triton X100 (Sigma) 0.2%. Dako Fluorescent mounting (Dako, Carpinteria, CA, USA) was used as mounting medium and Hoechst reagent for staining of the cell nuclei. Bodipy (green) and Hoechst (blue) signals were analyzed in three to four representative fields per coverslip (× 20 magnification, 1000 cells/field). Data were expressed as percentage of BC incorporation observed with BC alone.[95]

human Smo D473H = target: T2, human Smo D473H (Homo sapiens, UniProt Q99835, D473H); assay: Bodipy-Cyclopamine (BC) binding assay, HEK293T cells transfected with human Smo D473H
T2 construct: Myc-DDK; expressed in transfected cells; host or cells: HEK293T
Protocol: as §1

murine Smo WT = target: T3, murine Smo WT (Mus musculus, UniProt P56726); assay: Bodipy-Cyclopamine (BC) binding assay, HEK293T cells transfected with mouse Smo WT
T3 construct: Flag; expressed in transfected cells; host or cells: HEK293T
Protocol: as §1
(§2) BC binding (green) is visualized using fluorescence microscopy in a representative field (a). […] Quantitative data are the average BC intensity from five independent fluorescence microscopy images.

murine Smo D477G = target: T4, murine Smo D477G (Mus musculus, UniProt P56726, D477G); assay: Bodipy-Cyclopamine (BC) binding assay, HEK293T cells transfected with mouse Smo D477G
T4 construct: Flag; expressed in transfected cells; host or cells: HEK293T
Protocol: as §1, §2

WNT/β-Catenin pathway = assay: WNT/β-Catenin luciferase reporter assay (Top Flash-luciferase and β-Catenin) in MEFs WT; format: cell-based, mouse; conditions: increasing concentrations, 24 h
Protocol: Figure 2 Compound 12 inhibits Hh signaling without affecting AP1/Jun and WNT/β-Catenin pathways. (a) The graphs show the Hh target genes expression levels in Ptch1^−/− MEFs treated for 48 h with 12 or DMSO as control. mRNA levels were determined by quantitative real-time PCR (qRT-PCR) normalized to endogenous control (β2-microglobulin and HPRT). Pfkfb3 gene was used as negative control. *P<0.05 versus CTR. (b and c) AP1/Jun and WNT/β-Catenin pathways activity were assayed in MEFs WT transfected with MMP1-luciferase reporter and c-Jun (b) or Top Flash-luciferase reporter and β-Catenin (c), respectively, in the presence or absence of increasing concentrations of compound 12. Treatment time was 24 h, and normalization was against Renilla luciferase.

[1] = tested on: murine Ptch1^+/− MB stem-like cells; assay: MB stem cells neurosphere-forming assay; format: cell-based, mouse; conditions: 7 days of treatment, increasing concentrations
Protocol: Figure 5 Compound 12 inhibition of Hh-dependent MB tumor cell growth. […] (a and b) After the indicated times, a trypan blue count was performed to determine the growth rate of viable cells. (c) Gli1 mRNA expression levels were determined by qRT-PCR normalized to endogenous control (β2-microglobulin and HPRT). (d–f) Compound 12 inhibits MB-SCs self-renewal. (d) Suspension of single MB-SCs isolated from Ptch1^+/− mice were cultured in stem cell medium to allow the formation of primary neurospheres. Primary neurospheres were dissociated and treated with increasing concentrations of compound 12, Cyclopamine or DMSO only. After 7 days of treatment, the number of secondary neurospheres derived from a known number of single cells was counted. The self-renewal MB-SCs' capability is expressed as percentage of neurosphere-forming cells. (e) Representative bright-field images of tumor neurospheres after compound 12 or Cyclopamine treatment are also shown. (f) MB-SCs isolated from Ptch1^+/− mice MBs were treated for 48 h with compound 12 or DMSO only. qRT-PCR analysis show Hh, proliferation and stemness target mRNA. For qRT-PCR, results were normalized to endogenous control (β2-microglobulin and HPRT). […]
Cell proliferation was evaluated by BrdU detection (Roche, Welwyn Garden City, UK). […] At least 500 nuclei were counted in triplicate, and the number of BrdU-positive nuclei was recorded. […]

ASZ001 BCC allografts = assay: ASZ001 BCC allograft in NOD/SCID mice; format: in vivo, mouse; conditions: 50 mg/kg s.c. every second day, versus vehicle
[2] = tested on: human medulloblastoma DAOY cells; assay: Trypan blue growth count of DAOY cells; format: cell-based; conditions: versus Cyclopamine, Vismodegib, LDE-225
Protocol: (§3) After the indicated times, a trypan blue count was performed to determine the growth rate. […] Results were normalized to endogenous control (β-actin and HPRT).
(§4) Cell proliferation was evaluated by BrdU detection (Roche, Welwyn Garden City, UK). Briefly, after the BrdU pulse (24 h for GCPs) cells were fixed with 4% paraformaldehyde and permeabilized with 0.2% Triton X-100, and BrdU detection was performed according to the manufacturer's instructions. Nuclei were counterstained with Hoechst reagent. At least 500 nuclei were counted in triplicate, and the number of BrdU-positive nuclei was recorded. To determine the growth rate of viable cells, a trypan blue count was performed after a treatment period of 24–48–72 h with studied compound.

[3] = tested on: human prostate carcinoma epithelial 22Rv1 cells; assay: Trypan blue growth count of 22Rv1 cells; format: cell-based; conditions: versus Cyclopamine, Vismodegib, LDE-225
Protocol: as §3, §4

Gli1 mRNA = Gli1 mRNA (qRT-PCR) in 22Rv1 cells; format: cell-based, human; conditions: after treatment
Protocol: as §3
Total RNA was isolated with Trizol (Invitrogen/Life Technologies, Carlsbad, CA, USA) and reverse transcribed with SensiFAST cDNA Synthesis Kit (Bioline Reagents Limited, London, UK). Quantitative real-time PCR (Q-PCR) analysis of Gli1, Gli2, Ptch1, Bmp2, Pfkfb3, CycD1, CycD2, Pcna, Oct4, Nanog, β-2 microglobulin, β-actin and HPRT mRNA expression was performed on each cDNA sample using the VIIA7 Real Time PCR System employing Assay-on-Demand Reagents (Life Technologies).

[4] = BC (5 nM) displacement, transiently transfected 293T cells
[5] = HEK293T cells, various concentrations

T2 sequence (Q99835 28-787 D473H): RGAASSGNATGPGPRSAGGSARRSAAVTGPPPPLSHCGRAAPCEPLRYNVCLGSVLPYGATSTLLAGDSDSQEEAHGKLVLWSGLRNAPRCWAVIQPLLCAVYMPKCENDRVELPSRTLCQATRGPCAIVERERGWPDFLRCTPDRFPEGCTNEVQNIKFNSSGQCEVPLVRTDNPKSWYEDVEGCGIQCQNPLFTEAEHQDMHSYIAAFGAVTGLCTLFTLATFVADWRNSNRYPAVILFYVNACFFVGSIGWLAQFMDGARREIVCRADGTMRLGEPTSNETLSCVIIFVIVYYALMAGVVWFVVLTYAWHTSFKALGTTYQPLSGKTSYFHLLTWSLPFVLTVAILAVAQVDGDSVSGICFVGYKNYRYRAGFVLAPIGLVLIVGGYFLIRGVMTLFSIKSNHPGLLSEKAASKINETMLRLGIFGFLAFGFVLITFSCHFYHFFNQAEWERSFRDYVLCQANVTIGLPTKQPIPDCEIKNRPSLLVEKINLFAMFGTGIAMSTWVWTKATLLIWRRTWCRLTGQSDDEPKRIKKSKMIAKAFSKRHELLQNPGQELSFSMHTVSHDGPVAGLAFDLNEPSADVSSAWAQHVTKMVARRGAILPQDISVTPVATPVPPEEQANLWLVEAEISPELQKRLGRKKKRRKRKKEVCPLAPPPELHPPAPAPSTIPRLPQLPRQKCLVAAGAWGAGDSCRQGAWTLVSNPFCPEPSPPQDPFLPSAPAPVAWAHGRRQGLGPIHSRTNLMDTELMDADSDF
T4 sequence (P56726 33-793 D477G): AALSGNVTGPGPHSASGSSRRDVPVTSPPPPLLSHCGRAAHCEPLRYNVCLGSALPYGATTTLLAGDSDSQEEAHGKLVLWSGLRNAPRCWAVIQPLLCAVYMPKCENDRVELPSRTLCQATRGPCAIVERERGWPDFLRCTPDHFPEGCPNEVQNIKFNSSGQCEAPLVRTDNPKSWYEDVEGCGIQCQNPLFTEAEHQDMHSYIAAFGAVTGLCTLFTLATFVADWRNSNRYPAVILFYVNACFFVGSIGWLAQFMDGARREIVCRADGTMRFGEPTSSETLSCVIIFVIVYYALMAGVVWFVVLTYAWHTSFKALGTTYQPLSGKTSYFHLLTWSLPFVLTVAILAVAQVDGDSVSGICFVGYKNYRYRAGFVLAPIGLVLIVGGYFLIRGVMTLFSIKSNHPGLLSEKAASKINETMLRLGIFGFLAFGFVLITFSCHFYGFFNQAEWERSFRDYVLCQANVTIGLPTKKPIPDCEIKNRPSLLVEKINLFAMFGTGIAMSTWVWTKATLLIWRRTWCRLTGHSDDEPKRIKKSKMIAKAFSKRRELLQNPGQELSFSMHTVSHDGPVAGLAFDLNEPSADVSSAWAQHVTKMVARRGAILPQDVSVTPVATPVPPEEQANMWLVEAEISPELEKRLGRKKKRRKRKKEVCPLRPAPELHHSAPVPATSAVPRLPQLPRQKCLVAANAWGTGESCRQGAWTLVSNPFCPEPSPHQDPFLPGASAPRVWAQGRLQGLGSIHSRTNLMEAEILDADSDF
T3 sequence (P56726 33-793): as the sequence (P56726 33-793 D477G) above, with G445D counted along it
T1 sequence (Q99835 28-787): as the sequence (Q99835 28-787 D473H) above, with H446D counted along it

COc1ccc(C=CC(=O)c2cc(OC)c(OC)cc2OC)cc1OC [Compound 12, 3-(3,4-dimethoxy-phenyl)-1-(2,4,5-trimethoxy-phenyl)-2-propen-1-one]
IC50 (human Smo WT): 24.5 µM
IC50 (human Smo D473H; [4]): 22.7 µM
activity on the D473H drug-resistant Smo mutant (human Smo D473H; BC displacement assay): active
Fold shift human Smo (human Smo D473H; IC50 Smo D473H / IC50 Smo WT): 0.9257
loss of affinity for the resistant Smo mutants in binding assay (human Smo D473H; resistant Smo mutants versus WT): conserved the same affinity
IC50 (murine Smo WT; [4]): 45.6 µM
inhibition of BC binding to murine Smo WT (murine Smo WT; [5]): significantly inhibited BC binding
IC50 (murine Smo D477G; [4]): 56.7 µM
inhibition of BC binding to mouse Smo D477G mutant (murine Smo D477G; [5]): significantly inhibited BC binding
Fold shift murine Smo (murine Smo D477G; IC50 Smo D477G / IC50 Smo WT): 1.243
luciferase activity driven by Wnt/β-catenin signaling (WNT/β-Catenin pathway): without affecting luciferase activity; also recorded: inactive
clonogenic self-renewal ability (neurosphere formation) [1]: suppressed
tumor cell growth (tumor volume) in BCC allograft (ASZ001 BCC allografts; 18 days): reduction of tumor cell growth
percentage of Ki67 labeling in allograft tumors (ASZ001 BCC allografts): decreased percentage of Ki67 labeling
inhibition of DAOY cell proliferation [2]: higher activity than other Smo antagonists
inhibition of 22Rv1 cell proliferation [3]: higher activity than other Smo antagonists
Gli1 mRNA levels in 22Rv1 cells (Gli1 mRNA): significant decrease of Gli1 mRNA levels
